Measurements: US20250170141A1, “MRGPRX2 MODULATORS AND RELATED METHODS OF TREATMENT” (Escient Pharmaceuticals, Inc., priority 2023, published 2025)

Target: T1, human MRGPRX2 (Homo sapiens, UniProt Q96LB1)
T1 construct: expressed in transfected cells; host or cells: CHO cells, stably transfected (G418 and Hygromycin B selection)
T1 sequence (Q96LB1 1-330): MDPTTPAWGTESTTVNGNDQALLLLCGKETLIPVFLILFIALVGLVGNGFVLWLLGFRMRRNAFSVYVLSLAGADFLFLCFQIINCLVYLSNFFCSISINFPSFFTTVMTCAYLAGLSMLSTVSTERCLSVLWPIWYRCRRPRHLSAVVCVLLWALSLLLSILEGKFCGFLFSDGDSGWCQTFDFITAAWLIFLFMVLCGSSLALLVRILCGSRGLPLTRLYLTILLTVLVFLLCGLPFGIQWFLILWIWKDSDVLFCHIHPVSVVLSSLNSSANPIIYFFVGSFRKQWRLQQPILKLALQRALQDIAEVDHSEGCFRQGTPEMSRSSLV
Experiment: MRGPRX2 activity: IP-One Gq HTRF assay in CHO cells, antagonism versus 0.3 uM Cortistatin-14
Assay type: cell-based
Conditions: versus 0.3 uM Cortistatin-14 agonist, CHO cells expressing human MRGPRX2, read-out: MRGPRX2 Antagonist Activity
Summary of the method: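 CHO cells stably expressing human MRGPRX2 were treated with a 10-point compound curve (30 uM top, 1:3) plus 0.3 μM Cortistatin-14 in LiCl-containing Tris buffer, pH 8. Incubation was 1 h at 37 °C then 1 h at room temperature; IP-1 was detected by HTRF and IC50 came from the HTRF ratio.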

| Compound | IC50 [nM] |
| --- | --- |
| O=S1(=O)N=C(NCc2ccccc2C(F)(F)F)Nc2c1ccc(F)c2Oc1ccccc1Cl [Compound 1-27, 5-(2-chlorophenoxy)-6-fluoro-3-((2-(trifluoromethyl)benzyl)amino)-4H-benzo[e][1,2,4]thiadiazine 1,1-dioxide] | < 100 |
| CC(Cc1ccc(F)cc1)c1c(F)ccc2c1NC(NCc1cccc(F)c1)=NS2(=O)=O (stereo not shown) [Compound 22-17, 6-fluoro-3-((3-fluorobenzyl)amino)-5-(1-(4-fluorophenyl)propan-2-yl)-4H-benzo[e][1,2,4]thiadiazine 1,1-dioxide] | < 100 |
| COc1ccccc1CNC1=NS(=O)(=O)c2cc(F)c(F)c(Cc3ccccc3Cl)c2N1 [Compound 4-9, 5-(2-chlorobenzyl)-6,7-difluoro-3-((2-methoxybenzyl)amino)-4H-benzo[e][1,2,4]thiadiazine 1,1-dioxide] | 501 to 1000 |
| O=S1(=O)N=C(NCc2cnccc2C(F)(F)F)Nc2c(Cc3ccccc3Cl)cccc21 [Compound 12-30, 5-(2-chlorobenzyl)-3-(((4-(trifluoromethyl)pyridin-3-yl)methyl)amino)-4H-benzo[e][1,2,4]thiadiazine 1,1-dioxide] | < 100 |
| O=S1(=O)N=C(Nc2ccc(F)cc2)Nc2c1cc(F)c(F)c2Cc1ccccc1Cl [Compound 4-19, 5-(2-chlorobenzyl)-6,7-difluoro-3-((4-fluorophenyl)amino)-4H-benzo[e][1,2,4]thiadiazine 1,1-dioxide] | 501 to 1000 |
| O=S1(=O)N=C(NCc2ccccc2C(F)(F)F)Nc2c1cc(F)c(F)c2Cc1ccccc1Cl [Compound 4-16, 5-(2-chlorobenzyl)-6,7-difluoro-3-((2-(trifluoromethyl)benzyl)amino)-4H-benzo[e][1,2,4]thiadiazine 1,1-dioxide] | 100 to 500 |
| CC(c1ccccc1F)c1c(F)c(F)cc2c1NC(NCc1ncccc1F)=NS2(=O)=O (stereo not shown) [Compound 9-7, 6,7-difluoro-5-(1-(2-fluorophenyl)ethyl)-3-(((3-fluoropyridin-2-yl)methyl)amino)-4H-benzo[e][1,2,4]thiadiazine 1,1-dioxide] | < 100 |
| O=S1(=O)N=C(NCc2cccc(Cl)c2F)Nc2c1ccc(F)c2Oc1ccccc1Cl [Compound 1-25, 3-((3-chloro-2-fluorobenzyl)amino)-5-(2-chlorophenoxy)-6-fluoro-4H-benzo[e][1,2,4]thiadiazine 1,1-dioxide] | < 100 |
| CC(c1ccccc1F)c1c(F)ccc2c1NC(NCc1cccc(Cl)c1F)=NS2(=O)=O (stereo not shown) [Compound 9-2, 3-((3-chloro-2-fluorobenzyl)amino)-6-fluoro-5-(1-(2-fluorophenyl)ethyl)-4H-benzo[e][1,2,4]thiadiazine 1,1-dioxide] | < 100 |
| O=S1(=O)N=C(NCc2ncccc2F)Nc2c1cc(F)c(Cl)c2Oc1ccccc1Cl [Compound 1-48, 6-chloro-5-(2-chlorophenoxy)-7-fluoro-3-(((3-fluoropyridin-2-yl)methyl)amino)-4H-benzo[e][1,2,4]thiadiazine 1,1-dioxide] | < 100 |
| C=C(c1ccccc1F)c1cccc2c1NC(NCc1ncccc1F)=NS2(=O)=O [Compound 13-2, 5-(1-(2-fluorophenyl)vinyl)-3-(((3-fluoropyridin-2-yl)methyl)amino)-4H-benzo[e][1,2,4]thiadiazine 1,1-dioxide] | < 100 |
| O=S1(=O)N=C(NCc2ncccc2F)Nc2c1ccc(F)c2/C=C/c1ccccc1F [Compound 14-2, (E)-6-fluoro-3-(((3-fluoropyridin-2-yl)methyl)amino)-5-(2-fluorostyryl)-4H-benzo[e][1,2,4]thiadiazine 1,1-dioxide] | 100 to 500 |
| CC(c1ccc(F)cc1F)c1c(F)ccc2c1NC(NCc1cccc(F)c1)=NS2(=O)=O (stereo not shown) [Compound 22-25, 5-(1-(2,4-difluorophenyl)ethyl)-6-fluoro-3-((3-fluorobenzyl)amino)-4H-benzo[e][1,2,4]thiadiazine 1,1-dioxide] | < 100 |
| O=S1(=O)N=C(NCc2ncccc2F)Nc2c(Oc3ccccc3Cl)c(F)cc(F)c21 [Compound 1-1, 5-(2-chlorophenoxy)-6,8-difluoro-3-(((3-fluoropyridin-2-yl)methyl)amino)-4H-benzo[e][1,2,4]thiadiazine 1,1-dioxide] | 100 to 500 |
| COc1ccccc1CNC1=NS(=O)(=O)c2ccc(F)c(C(C)c3ccccc3F)c2N1 (stereo not shown) [Compound 7-9, 6-fluoro-5-(1-(2-fluorophenyl)ethyl)-3-((2-methoxybenzyl)amino)-4H-benzo[e][1,2,4]thiadiazine 1,1-dioxide] | < 100 |
| O=S1(=O)N=C(N2CCc3cccnc3C2)Nc2c1ccc(F)c2Oc1ccccc1Cl [Compound 1-52, 5-(2-chlorophenoxy)-3-(5,8-dihydro-1,7-naphthyridin-7(6H)-yl)-6-fluoro-4H-benzo[e][1,2,4]thiadiazine 1,1-dioxide] | > 2500 |
| O=S1(=O)N=C(NCc2ncccc2F)Nc2c1ccc(F)c2Oc1c(F)cccc1F [Compound 1-33, 5-(2,6-difluorophenoxy)-6-fluoro-3-(((3-fluoropyridin-2-yl)methyl)amino)-4H-benzo[e][1,2,4]thiadiazine 1,1-dioxide] | 501 to 1000 |
| CC(c1ccccc1F)c1c(F)ccc2c1NC(NCc1ccc(F)c(Cl)c1)=NS2(=O)=O (stereo not shown) [Compound 7-7, 3-((3-chloro-4-fluorobenzyl)amino)-6-fluoro-5-(1-(2-fluorophenyl)ethyl)-4H-benzo[e][1,2,4]thiadiazine 1,1-dioxide] | < 100 |
| O=S1(=O)N=C(NCc2cnccc2C(F)(F)F)Nc2c1ccc(F)c2Oc1ccccc1Cl [Compound 1-28, 5-(2-chlorophenoxy)-6-fluoro-3-(((4-(trifluoromethyl)pyridin-3-yl)methyl)amino)-4H-benzo[e][1,2,4]thiadiazine 1,1-dioxide] | 501 to 1000 |
| O=S1(=O)N=C(NCc2ccccc2F)Nc2c(Cc3ccccc3)cccc21 [Compound 6-3, 5-benzyl-3-((2-fluorobenzyl)amino)-4H-benzo[e][1,2,4]thiadiazine 1,1-dioxide] | < 100 |
| Cc1ccccc1Cc1cccc2c1NC(NCc1ccccc1F)=NS2(=O)=O [Compound 6-7, 3-((2-fluorobenzyl)amino)-5-(2-methylbenzyl)-4H-benzo[e][1,2,4]thiadiazine 1,1-dioxide] | < 100 |
| CCC(c1ccccc1F)c1c(F)ccc2c1NC(NCc1ncccc1F)=NS2(=O)=O (stereo not shown) [Compound 20-1, 6-fluoro-5-(1-(2-fluorophenyl)propyl)-3-(((3-fluoropyridin-2-yl)methyl)amino)-4H-benzo[e][1,2,4]thiadiazine 1,1-dioxide] | < 100 |
| O=S1(=O)N=C(NCc2ncccc2F)Nc2c1ccc(Cl)c2Oc1cccc(F)c1Cl [Compound 1-51, 6-chloro-5-(2-chloro-3-fluorophenoxy)-3-(((3-fluoropyridin-2-yl)methyl)amino)-4H-benzo[e][1,2,4]thiadiazine 1,1-dioxide] | < 100 |
| O=S1(=O)N=C(NCc2ncccc2F)Nc2c1ccc(F)c2Oc1cccc(Cl)c1Cl [Compound 1-10, 5-(2,3-dichlorophenoxy)-6-fluoro-3-(((3-fluoropyridin-2-yl)methyl)amino)-4H-benzo[e][1,2,4]thiadiazine 1,1-dioxide] | < 100 |
| O=S1(=O)N=C(NCc2cccc(F)n2)Nc2c1ccc(F)c2Cc1ccccc1Cl [Compound 4-2, 5-(2-chlorobenzyl)-6-fluoro-3-(((6-fluoropyridin-2-yl)methyl)amino)-4H-benzo[e][1,2,4]thiadiazine 1,1-dioxide] | 100 to 500 |
